Measurements reported in ChEMBL document CHEMBL1201862, “PubChem BioAssay data set” (2004).
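Test compounds were applied to cells in 96-well plates for 48 hours at 5 doses. The concentration for 50% growth inhibition is given as GI50.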 Calls of active or inactive are those of the source. Rule as the data show it: active = GI50 up to about 1.1 µM and inactive = higher.

Assays:
Test in all cases: NCI anticancer screen, dose series, 48 h
UO-31 = tested on: UO-31
SR = tested on: SR
SK-MEL-5 = tested on: SK-MEL-5
T47D = tested on: T47D
HL-60 = tested on: HL-60
HOP-92 = tested on: HOP-92
MDA-MB-435 = tested on: MDA-MB-435
RXF 393 = tested on: RXF 393
UACC-62 = tested on: UACC-62
DU-145 = tested on: DU-145
HCT-116 = tested on: HCT-116
COLO 205 = tested on: COLO 205
OVCAR-8 = tested on: OVCAR-8
CAKI-1 = tested on: CAKI-1
SK-MEL-28 = tested on: SK-MEL-28
NCI/ADR-RES = tested on: NCI/ADR-RES
HCT-15 = tested on: HCT-15
BT-549 = tested on: BT-549
OVCAR-3 = tested on: OVCAR-3
SNB-19 = tested on: SNB-19
PC-3 = tested on: PC-3
MDA-MB-231 = tested on: MDA-MB-231
786-0 = tested on: 786-0
ACHN = tested on: ACHN
A498 = tested on: A498
K562 = tested on: K562
HOP-62 = tested on: HOP-62
HCC 2998 = tested on: HCC 2998
LOX IMVI = tested on: LOX IMVI
KM12 = tested on: KM12
OVCAR-4 = tested on: OVCAR-4
TK-10 = tested on: TK-10
SK-MEL-2 = tested on: SK-MEL-2
SK-OV-3 = tested on: SK-OV-3
CCRF-CEM = tested on: CCRF-CEM
Malme-3M = tested on: Malme-3M
NCI-H522 = tested on: NCI-H522
NCI-H23 = tested on: NCI-H23
Hs-578T = tested on: Hs-578T
NCI-H226 = tested on: NCI-H226
SN12C = tested on: SN12C
NCI-H460 = tested on: NCI-H460
MDA-N = tested on: MDA-N
SNB-75 = tested on: SNB-75
OVCAR-5 = tested on: OVCAR-5
SW-620 = tested on: SW-620
MCF7 = tested on: MCF7
HT-29 = tested on: HT-29
RPMI-8226 = tested on: RPMI-8226
U-251 = tested on: U-251
EKVX = tested on: EKVX
IGROV-1 = tested on: IGROV-1
A549 = tested on: A549
M14 = tested on: M14
SF-268 = tested on: SF-268
SF-295 = tested on: SF-295
UACC-257 = tested on: UACC-257
MOLT-4 = tested on: MOLT-4
SF-539 = tested on: SF-539

Measured: GI50

Nc1nc(=S)n(-c2ccc(Cl)cc2)c2nc3ccccc3cc12
39.9 µM: HCT-15
inactive: UO-31 33.6 µM | SR 16.1 µM | SK-MEL-5 51.8 µM | T47D 18.7 µM | HL-60 > 100 µM | HOP-92 9.82 µM | MDA-MB-435 80.4 µM | RXF 393 57.9 µM | UACC-62 40.9 µM | DU-145 43.6 µM | HCT-116 40.7 µM | COLO 205 36 µM | OVCAR-8 50.1 µM | CAKI-1 30.1 µM | SK-MEL-28 > 100 µM | NCI/ADR-RES > 100 µM | BT-549 19.1 µM | OVCAR-3 45 µM | SNB-19 > 100 µM | PC-3 46.8 µM | MDA-MB-231 60.5 µM | 786-0 53.3 µM | ACHN 18.8 µM | A498 > 100 µM | K562 66.7 µM | HOP-62 55.8 µM | HCC 2998 64.6 µM | LOX IMVI 44.1 µM | KM12 29.3 µM | OVCAR-4 46.7 µM | TK-10 28.7 µM | SK-MEL-2 49.7 µM | SK-OV-3 22.7 µM | CCRF-CEM 42.4 µM | Malme-3M 32.5 µM | NCI-H522 45.3 µM | NCI-H23 56.9 µM | Hs-578T 83.2 µM | NCI-H226 50.6 µM | SN12C > 100 µM | NCI-H460 46.2 µM | MDA-N 90.8 µM | SNB-75 43.5 µM | OVCAR-5 83.2 µM | SW-620 95.5 µM | MCF7 15.4 µM | HT-29 79.6 µM | RPMI-8226 59.6 µM | U-251 48.9 µM | EKVX 15.3 µM | IGROV-1 1.69 µM | A549 97.7 µM | M14 84.9 µM | SF-268 36.2 µM | SF-295 64.6 µM | UACC-257 > 100 µM

N=C(N)N/N=C/c1c(-c2ccc([N+](=O)[O-])cc2)nc2n1CCS2
18.5 µM: HCT-15
inactive: UO-31 15.6 µM | SR 2.25 µM | SK-MEL-5 16.1 µM | T47D 5.13 µM | MOLT-4 3.24 µM | HL-60 8.36 µM | HOP-92 18.4 µM | MDA-MB-435 14.8 µM | RXF 393 8.51 µM | UACC-62 16.7 µM | DU-145 14.6 µM | HCT-116 7.87 µM | COLO 205 2.76 µM | OVCAR-8 11 µM | CAKI-1 17.5 µM | SK-MEL-28 17.3 µM | NCI/ADR-RES > 72.4 µM | BT-549 17.1 µM | OVCAR-3 14.8 µM | SNB-19 3.54 µM | PC-3 13.2 µM | MDA-MB-231 6.18 µM | 786-0 6.67 µM | ACHN 16.5 µM | A498 20.4 µM | K562 3.86 µM | HOP-62 20.5 µM | HCC 2998 6.32 µM | LOX IMVI 8.26 µM | KM12 4.84 µM | OVCAR-4 7.85 µM | TK-10 17.4 µM | SK-MEL-2 7.35 µM | SK-OV-3 20.3 µM | CCRF-CEM 1.89 µM | Malme-3M 17.9 µM | NCI-H522 10.6 µM | NCI-H23 14.3 µM | Hs-578T 16.7 µM | NCI-H226 20.3 µM | SN12C 7 µM | NCI-H460 15.3 µM | MDA-N 11.9 µM | SNB-75 6.04 µM | OVCAR-5 14.4 µM | SF-539 16.3 µM | SW-620 2.53 µM | MCF7 6.9 µM | HT-29 14.5 µM | RPMI-8226 38 µM | U-251 2.3 µM | EKVX 18.3 µM | IGROV-1 17.4 µM | A549 17 µM | M14 14.5 µM | SF-268 9.55 µM | SF-295 18 µM | UACC-257 18.5 µM
